Tests used:
Type in all cases: in vivo
Tumor cells B16F10 = assay: Anti-tumor effect in B16F10 tumor-bearing mice (alone and combined with PD-1 monoclonal antibody); details: female C57BL/6 mice; by tumor weight vs control group; compounds 150 mg/kg orally every day; PD-1 monoclonal antibody 10 mg/kg intraperitoneally every three days; combination: both
From the text: (§1) Tumor cells B16F10, LLC, PAN02, H22, CT26, MFC, and GL261 (purchased from Biological Industries) in good growth status were collected, separately washed twice with 1×PBS, and a total number of the cells was counted with a cell counter, and a cell solution was separately diluted with 1×PBS to obtain a cell suspension of 1×10^7 cells/mL. The mice used in this experiment were purchased from Beijing Vital River Laboratory (Beijing, China). The above different types of tumor cells were inoculated into different types of mice to produce corresponding tumor-bearing mice, and the correspondences are as follows. Tumor cell B16F10 corresponds to female mice C57BL/6 aged 6-8 weeks; Tumor cell LLC corresponds to female mice Balb/c aged 6-8 weeks; Tumor cell PAN02 corresponds to female mice C57BL/6J aged 6-8 weeks; Tumor cell H22 corresponds to female mice C57BL/6 aged 6-8 weeks; Tumor cell CT26 corresponds to female mice Balb/c aged 6-8 weeks; Tumor cell MFC corresponds to female mice BALB/c-nu/nu aged 6-8 weeks; and Tumor cell GL261 corresponds to female mice C57BL/6 aged 6-8 weeks. […] After the experiment was completed, the mice were euthanized, tumor tissues thereof were collected, and volume and weight of the tumor tissues were tested to calculate a tumor inhibition rate. Tumor inhibition rate=(1-tumor weight of treatment group/tumor weight of control group)×100%

Tumor cells LLC = assay: Anti-tumor effect in LLC tumor-bearing mice (alone and combined with PD-1 monoclonal antibody); details: female Balb/c mice; by tumor weight vs control group; compounds 150 mg/kg orally every day; PD-1 monoclonal antibody 10 mg/kg intraperitoneally every three days; combination: both
From the text: as §1

Tumor cells PAN02 = assay: Anti-tumor effect in PAN02 tumor-bearing mice (alone and combined with PD-1 monoclonal antibody); details: for Tumor inhibition rate PAN02: female C57BL/6J mice, by tumor weight vs control group, compounds 150 mg/kg orally every day, PD-1 monoclonal antibody 10 mg/kg intraperitoneally every three days, combination: both
From the text: as §1

Tumor cells H22 = assay: Anti-tumor effect in H22 tumor-bearing mice (alone and combined with PD-1 monoclonal antibody); details: female C57BL/6 mice; by tumor weight vs control group; compounds 150 mg/kg orally every day; PD-1 monoclonal antibody 10 mg/kg intraperitoneally every three days; combination: both
From the text: as §1

Tumor cells CT26 = assay: Anti-tumor effect in CT26 tumor-bearing mice (alone and combined with PD-1 monoclonal antibody); details: female Balb/c mice; by tumor weight vs control group; compounds 150 mg/kg orally every day; PD-1 monoclonal antibody 10 mg/kg intraperitoneally every three days; combination: both
From the text: as §1

Tumor cells MFC = assay: Anti-tumor effect in MFC tumor-bearing mice (alone and combined with PD-1 monoclonal antibody); details: female BALB/c-nu/nu mice; by tumor weight vs control group; compounds 150 mg/kg orally every day; PD-1 monoclonal antibody 10 mg/kg intraperitoneally every three days; combination: both
From the text: as §1

Tumor cells GL261 = assay: Anti-tumor effect in GL261 tumor-bearing mice (alone and combined with PD-1 monoclonal antibody); details: for Tumor inhibition rate GL261: female C57BL/6 mice, by tumor weight vs control group, compounds 150 mg/kg orally every day, PD-1 monoclonal antibody 10 mg/kg intraperitoneally every three days, combination: both
From the text: as §1

[1] = combined administration with the PD-1 monoclonal antibody (text summary of Table 1)

Structure (SMILES)	Tumor inhibition rate B16F10 (Tumor cells B16F10) [%]	Tumor inhibition rate LLC (Tumor cells LLC) [%]	Tumor inhibition rate PAN02 (Tumor cells PAN02) [%]	Tumor inhibition rate H22 (Tumor cells H22) [%]	Tumor inhibition rate CT26 (Tumor cells CT26) [%]	Tumor inhibition rate MFC (Tumor cells MFC) [%]	Tumor inhibition rate GL261 (Tumor cells GL261) [%]	tumor inhibition rate, PAN02 cells (Tumor cells PAN02; [1])	tumor inhibition rate, GL261 cells (Tumor cells GL261; [1])
CN(CCO)CC1C(=O)O[C@@H]2C[C@@]3(C)CC[C@@H](O)[C@]4(CO4)[C@@H]3C[C@H]12.O=C(O)/C=C/C(=O)O (stereo partly drawn) [Compound 4]	23	24	22	26	31	27	23		
C[C@]12CC[C@@H](O)[C@]3(CO3)[C@@H]1C[C@@H]1C(CN(CCO)CCO)C(=O)O[C@@H]1C2.O=C(O)/C=C/C(=O)O (stereo partly drawn) [Compound 5]	24	26	19	31	52	44	19		
CN(CCCO)CC1C(=O)O[C@@H]2C[C@@]3(C)CC[C@@H](O)[C@]4(CO4)[C@@H]3C[C@H]12.O=C(O)/C=C/C(=O)O (stereo partly drawn) [Compound 6]	31	29	31	39	41	52	29	up to 89%	up to 89%
CN(C)CC1C(=O)O[C@@H]2C[C@@]3(C)CC[C@@H](O)[C@]4(CO4)[C@@H]3C[C@H]12.O=C(O)/C=C/C(=O)O (stereo partly drawn) [Control compound 7, reference compound]	41	44	43	52	60	38	39		
